In test [1] the test system is C57BL/6 mice. In words: Matrigel plug assay (VEGF dependent angiogenesis in vivo). The settings on record: VEGF 4 ng/ml, 7 days. Here is the method: Matrigel (0.5 ml/plug) with no VEGF or GA, VEGF (4 ng/ml) but no GA, VEGF (4 ng/ml) and 0.1 μM GA or 0.2 μM GA in liquid form at 4° C., respectively, were injected subcutaneously in the midventral abdominal region of 5-6 week old C57BL/6 mice (five mice for each group). After 7 days, the mice were sacrificed and the plugs were removed. Each concentration had 4-5 Matrigel plugs. The Matrigel plugs were fixed with formalin and embedded with paraffin. The 5 μm sections were stained with H&E staining. The number of erythrocyte-filled blood vessels in the high power microscope field (HPF, 200×) was recorded (plug number=4-5, t-test, p<0.005).

Test [2] concerns PC3 cells. Kind of test: Proliferation assay (CellTiter 96 Aqueous One). It counts as cell-based. The settings on record: Homo sapiens, PC-3; PC3 cancer cells; read-out: Concentration required to inhibit PC3 cell proliferation by 50%. An excerpt:
(§1) HUVEC and PC3 cell proliferation assays with different concentrations of GA were followed according to the CellTiter 96 Aqueous One Solution Cell Proliferation Assay (Promega) and analyzed using a VERSAMAX microplate reader (Molecular Devices).

Test [3] concerns HUVEC cells. In words: Proliferation assay (CellTiter 96 Aqueous One). It counts as cell-based. The settings on record: Homo sapiens, read-out: Concentration that inhibits HUVEC cell proliferation by 50%.
Description: as §1

For test [4], the system named is AKT. Kind of test: AKT phosphorylation (pSer473) in HUVEC cells (immunoprecipitation, Western blotting). The settings on record: HUVEC cells with or without VEGF, increasing concentration of GA. The format is cell-based, human. How it is done:
(§2) After starvation in ECGM medium without serum overnight, HUVEC cells were washed with 1×PBS twice, followed with incubation in M199 medium. HUVEC cells were then treated with 1 nM of GA and/or 4 nM of VEGF for 5 minutes, then subjected to immunoprecipitation using anti-VEGFR2 antibody. Anti-phosphotyrosine antibody was used for the detection of phosphorylation of the tyrosine residue of VEGFR2. […] Reaction cocktail containing 100 ng of active VEGFR2 was incubated with different concentrations of GA for 5 minutes at room temperature. Substrate peptide cocktail was added to the pre-incubated reaction cocktail/GA compound. After incubation at room temperature for 30 minutes, stop buffer was added to halt the reaction. 25 μl of each reaction was then transferred with 75 μl dH2O per well into a 96-well streptavidin coated plate and incubated at room temperature for 60 minutes. […] The stop solution was added and the plate was detected at 405 nm. […]
(§3) HUVEC cells pretreated with or without 4 nM VEGF for 5 min were treated with or without different concentrations of GA for another 5 minutes. […] Anti-cleaved caspase 3 antibody (Santa Cruz Biotech) was used for detecting cleaved caspase 3 and polyADP ribose polymerase (PARP) cleavage was detected by an anti-PARP p85 fragment (Promega) in apoptosis assays.

Test [5] relates to HUVEC cells. In words: Tube formation assay on Matrigel. It counts as cell-based, human. As to conditions: for IC50: Homo sapiens, HUVEC. Here is the method:
Matrigel (BD Biosciences) were thawed at 4° C. overnight and each well of the prechilled 24-well plates was coated with 100 μl Matrigel and incubated at 37° C. for 45 minutes. HUVEC cells (4×10^4 cells) were added in 1 ml ECGM with various concentrations of gambogic acid. After 12-16 hours of incubation at 37° C., 5% CO2, endothelial cell tube formation was assessed using an OLYMPUS inverted microscope. Tubular structures were quantified by manual counting of low power fields (25×) and percent inhibition was expressed using untreated wells as 100% (t-test, p<0.001).

The test system of test [6] is FAK. In words: FAK phosphorylation in HUVEC cells (immunoprecipitation, Western blotting). As to conditions: HUVEC cells with or without VEGF, GA 1-40 nM, 5 minutes. The format is cell-based, human. How it is done:
as §2, §3

For test [7], the system named is mice aortic rings. In words: Aortic ring assay (micro-vessel growth). As to conditions: 10 nM GA, 4 days incubation. The format is cell-based. Here is the method: Forty-eight-well plates were covered with 100 μl of Matrigel at 4° C. and incubated at 37° C., 5% CO2 for 30 minutes. Aortas isolated from mice were cleaned of periadventitial fat and connective tissues, and cut into about 1-1.5 mm-long rings. After being rinsed five times with endothelial cell-based medium, the aortas were placed on the Matrigel covered wells and covered with another 100 μl of Matrigel. Artery rings were cultured in 1.5 ml of ECGM medium without serum for 24 hours. The medium was then replaced with 1.5 ml of ECGM medium supplemented with or without GA. The medium was changed every two days with the exact composition as described above. After 4 days incubation, the micro-vessel growth was quantified in the mouse aortic ring assay by taking photographs with an Olympus IX 70 inverted microscope using a 4× objective lens. After images were acquired, the outgrowth area was delineated and measured with Pro Plus software (Media Cybernetics).

The target in test [8] is T1, VEGFR2 (Homo sapiens, UniProt P35968).
T1 construct: endogenous in cells; host or cells: HUVEC
T1 sequence (P35968 20-1356): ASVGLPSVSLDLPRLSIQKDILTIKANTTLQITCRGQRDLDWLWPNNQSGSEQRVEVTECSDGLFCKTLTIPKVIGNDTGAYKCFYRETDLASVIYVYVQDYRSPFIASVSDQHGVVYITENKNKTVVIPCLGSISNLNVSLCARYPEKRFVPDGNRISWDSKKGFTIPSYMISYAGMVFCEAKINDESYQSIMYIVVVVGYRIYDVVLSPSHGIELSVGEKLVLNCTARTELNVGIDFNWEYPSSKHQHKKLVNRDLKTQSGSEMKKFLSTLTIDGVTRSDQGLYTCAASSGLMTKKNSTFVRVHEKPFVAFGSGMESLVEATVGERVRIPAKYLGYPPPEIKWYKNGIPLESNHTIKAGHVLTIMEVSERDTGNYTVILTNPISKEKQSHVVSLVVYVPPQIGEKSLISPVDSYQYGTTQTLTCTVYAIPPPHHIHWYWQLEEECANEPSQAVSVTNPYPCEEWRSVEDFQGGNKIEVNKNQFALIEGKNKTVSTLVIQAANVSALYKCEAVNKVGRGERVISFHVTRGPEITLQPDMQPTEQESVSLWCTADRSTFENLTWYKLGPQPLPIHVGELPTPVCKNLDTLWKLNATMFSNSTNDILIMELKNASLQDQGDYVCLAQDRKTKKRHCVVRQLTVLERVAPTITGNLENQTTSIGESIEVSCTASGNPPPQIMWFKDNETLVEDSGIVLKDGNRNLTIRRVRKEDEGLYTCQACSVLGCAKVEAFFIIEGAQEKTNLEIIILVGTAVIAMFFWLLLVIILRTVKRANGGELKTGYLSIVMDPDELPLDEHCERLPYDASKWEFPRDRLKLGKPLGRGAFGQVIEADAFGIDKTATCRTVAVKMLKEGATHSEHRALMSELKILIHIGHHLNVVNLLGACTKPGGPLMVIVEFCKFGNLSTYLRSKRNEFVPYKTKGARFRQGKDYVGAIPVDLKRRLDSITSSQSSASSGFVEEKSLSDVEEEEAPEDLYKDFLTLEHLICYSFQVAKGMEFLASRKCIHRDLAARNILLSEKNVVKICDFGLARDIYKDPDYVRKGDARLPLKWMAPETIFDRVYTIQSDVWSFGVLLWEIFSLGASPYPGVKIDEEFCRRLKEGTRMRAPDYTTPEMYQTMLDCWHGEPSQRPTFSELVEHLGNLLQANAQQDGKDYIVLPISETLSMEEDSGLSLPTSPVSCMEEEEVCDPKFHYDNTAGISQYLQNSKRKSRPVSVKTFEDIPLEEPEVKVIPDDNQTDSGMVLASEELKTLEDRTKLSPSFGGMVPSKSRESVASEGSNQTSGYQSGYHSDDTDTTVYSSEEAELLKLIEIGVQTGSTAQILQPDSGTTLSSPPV
Kind of test: VEGFR2 tyrosine phosphorylation in VEGF stimulated HUVEC cells (immunoprecipitation, Western blotting). It counts as cell-based. The settings on record: 1 nM GA, 4 nM VEGF, 5 minutes. How it is done:
as §2
VEGFR2 is the primary receptor in VEGF signaling pathway that regulates endothelial cell proliferation, migration, differentiation, tube formation, and angiogenesis. […] HUVEC cells were stimulated with VEGF; phosphorylation and activation of VEGFR2 was detected by immunoprecipitation with anti-VEGFR2 (Flk-1) antibody and by Western blotting with anti-pTyr-antibody for phosphorylation of VEGFR2.
Background: Immunoblotting shows a protein as a band on a membrane.

1 molecule from patent publication US20090259054A1, “Methods and Compositions for the Treatment of Angiogenesis and Macular Degeneration” (The Texas A&M University System, priority 2008, published 2009) can be followed below.

“Also recorded” adds a separate entry of the source.

With `CC(C)=CCC[C@]1(C)C=Cc2c(O)c3c(c(CC=C(C)C)c2O1)O[C@]12C(=C[C@@H]4C[C@H]1C(C)(C)O[C@@]2(C/C=C(/C)C(=O)O)C4=O)C3=O` [GA, gambogic acid], the results for the “VEGF dependent angiogenesis in Matrigel plugs” value in test [1] (0.1 μM GA) and in test [1] (0.2 μM GA) were “inhibited VEGF dependent angiogenesis” and “totally abolished angiogenesis”, respectively. Also, the IC50 in test [2] was more than 400 nM; in test [3], 80 nM; in test [5] (12-16 hours, read-out: Concentration that inhibited tube formation of HUVEC cells by 50%), approximately 50 nM; in test [5] (as printed in the legend of FIG. 3, read-out: Concentration that inhibited 50% tube formation of HUVEC cells), approximately 50 nM. The “Phosphorylation and activation of AKT (pSer473)” value in test [4] was “inhibited AKT phosphorylation and activation”. Besides, in test [5] (100 nM GA), the “Tube formation ability of HUVECs” value is recorded as “completely inhibited the tube-forming ability; also recorded: completely inhibited the tube formation ability”. In addition, the “Phosphorylation and activation of FAK” value in test [6] is “significantly inhibited the phosphorylation and activation”. In addition, the “New vessel growth from aortic rings” value in test [7] is “inhibited almost all new vessel growth”. In addition, the “Phosphorylation and activation of VEGFR2 in HUVEC cells” value in test [8] was “dramatically inhibited the phosphorylation of VEGFR2; also recorded: strongly inhibited VEGFR2 kinase activity”.
